Experimental data taken from ChEMBL document CHEMBL1201862, “PubChem BioAssay data set” (2004).
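Where inhibition never reached the appropriate level, the endpoint shown equals the highest concentration tested. Otherwise, values were interpolated linearly from a five-concentration, 48-hour dose response in 96-well plates. GI50 marks 50% less growth.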 Calls of active or inactive are those of the source. Rule as the data show it: active = GI50 up to about 1.1 µM and inactive = higher.

What was measured:
Assay in all cases: NCI-60 cell line screen, 48 h
K562 = system: K562
SF-295 = system: SF-295
HOP-92 = system: HOP-92
786-0 = system: 786-0
OVCAR-5 = system: OVCAR-5
SK-MEL-28 = system: SK-MEL-28
SK-MEL-5 = system: SK-MEL-5
UO-31 = system: UO-31
SN12C = system: SN12C
HL-60 = system: HL-60
NCI-H460 = system: NCI-H460
ACHN = system: ACHN
KM12 = system: KM12
OVCAR-3 = system: OVCAR-3
OVCAR-4 = system: OVCAR-4

SMILES	GI50 (K562)	GI50 (SF-295)	GI50 (HOP-92)	GI50 (786-0)	GI50 (OVCAR-5)	GI50 (SK-MEL-28)	GI50 (SK-MEL-5)	GI50 (UO-31)	GI50 (SN12C)	GI50 (HL-60)	GI50 (NCI-H460)	GI50 (ACHN)	GI50 (KM12)	GI50 (OVCAR-3)	GI50 (OVCAR-4)
Cc1cc(C2CCCCC2)n(O)c(=O)c1 [CICLOPIROX OLAMINE]	3.41 µM (inactive)	3.81 µM (inactive)	0.605 µM (active)	9.48 µM (inactive)	8.28 µM (inactive)	12.6 µM (inactive)	10.4 µM (inactive)	6.32 µM (inactive)	12.5 µM (inactive)	0.178 µM (active)	2.32 µM (inactive)	3.97 µM (inactive)	4.66 µM (inactive)	–	–
COCOCC/C=C/C=O	> 100 µM (inactive)	> 100 µM (inactive)	> 100 µM (inactive)	> 100 µM (inactive)	> 100 µM (inactive)	> 100 µM (inactive)	> 100 µM (inactive)	> 100 µM (inactive)	> 100 µM (inactive)	> 100 µM (inactive)	> 100 µM (inactive)	> 100 µM (inactive)	> 100 µM (inactive)	> 100 µM (inactive)	–
Cc1cc(OCC(O)CO)ccc1-c1ccccc1 (stereo unspecified)	> 100 µM (inactive)	–	92.5 µM (inactive)	> 100 µM (inactive)	–	> 100 µM (inactive)	> 100 µM (inactive)	> 100 µM (inactive)	> 100 µM (inactive)	61.1 µM (inactive)	> 100 µM (inactive)	> 100 µM (inactive)	> 100 µM (inactive)	> 100 µM (inactive)	> 100 µM (inactive)
CN(C)CCn1cnc2sc3ccccc3c21	> 100 µM (inactive)	> 100 µM (inactive)	–	> 100 µM (inactive)	> 100 µM (inactive)	> 100 µM (inactive)	> 100 µM (inactive)	–	> 100 µM (inactive)	–	> 100 µM (inactive)	> 100 µM (inactive)	> 100 µM (inactive)	> 100 µM (inactive)	> 100 µM (inactive)
O=[N+]([O-])c1ccc2nc3ccscc-3c2c1	4.6 µM (inactive)	24.2 µM (inactive)	10.8 µM (inactive)	19.5 µM (inactive)	35.3 µM (inactive)	27.8 µM (inactive)	7.31 µM (inactive)	8.13 µM (inactive)	–	4.81 µM (inactive)	14.1 µM (inactive)	13.6 µM (inactive)	7.52 µM (inactive)	7.94 µM (inactive)	15.5 µM (inactive)
NC(=S)N/N=C(\CC1OC(=O)c2ccccc21)c1ccc(Cl)cc1 (stereo unspecified)	84.1 µM (inactive)	41.9 µM (inactive)	23.1 µM (inactive)	43.4 µM (inactive)	92.9 µM (inactive)	45.8 µM (inactive)	–	24.9 µM (inactive)	35.2 µM (inactive)	98.2 µM (inactive)	34.3 µM (inactive)	56.1 µM (inactive)	22 µM (inactive)	34.6 µM (inactive)	23.1 µM (inactive)
CN(C)CC(C)(C)C(=O)/C=C/c1ccccc1	5.13 µM (inactive)	17.5 µM (inactive)	8.41 µM (inactive)	15.4 µM (inactive)	–	16 µM (inactive)	16.2 µM (inactive)	11 µM (inactive)	13.3 µM (inactive)	5.58 µM (inactive)	13.9 µM (inactive)	17.9 µM (inactive)	14.1 µM (inactive)	17.5 µM (inactive)	14.2 µM (inactive)
COc1cc(C)c2c(c1C)OC(=O)c1c(C)c(Cl)c(O)c(C=O)c1O2	18.5 µM (inactive)	> 10 µM (inactive)	–	10.4 µM (inactive)	27.7 µM (inactive)	–	60.1 µM (inactive)	11.2 µM (inactive)	21.8 µM (inactive)	9.02 µM (inactive)	17.4 µM (inactive)	14.7 µM (inactive)	15.4 µM (inactive)	1.63 µM (inactive)	–
